According to patent US20090246134A1, “COMPOSITIONS AND METHODS FOR MODULATING GATED ION CHANNELS” (PainCeptor Pharma Corporation, priority 2007, published 2009):

How the values were obtained:
ASIC1a [1] = molecular target: T1, ASIC1a (Homo sapiens, UniProt P78348); assay: Calcium-imaging (calcium mobilization, FLIPR) assay in ASIC1a expressing HEK293 cells; assay type: cell-based; set-up: host or cells: HEK293; conditions: n=3-7, compounds not radiolabelled
T1 sequence (P78348 1-528): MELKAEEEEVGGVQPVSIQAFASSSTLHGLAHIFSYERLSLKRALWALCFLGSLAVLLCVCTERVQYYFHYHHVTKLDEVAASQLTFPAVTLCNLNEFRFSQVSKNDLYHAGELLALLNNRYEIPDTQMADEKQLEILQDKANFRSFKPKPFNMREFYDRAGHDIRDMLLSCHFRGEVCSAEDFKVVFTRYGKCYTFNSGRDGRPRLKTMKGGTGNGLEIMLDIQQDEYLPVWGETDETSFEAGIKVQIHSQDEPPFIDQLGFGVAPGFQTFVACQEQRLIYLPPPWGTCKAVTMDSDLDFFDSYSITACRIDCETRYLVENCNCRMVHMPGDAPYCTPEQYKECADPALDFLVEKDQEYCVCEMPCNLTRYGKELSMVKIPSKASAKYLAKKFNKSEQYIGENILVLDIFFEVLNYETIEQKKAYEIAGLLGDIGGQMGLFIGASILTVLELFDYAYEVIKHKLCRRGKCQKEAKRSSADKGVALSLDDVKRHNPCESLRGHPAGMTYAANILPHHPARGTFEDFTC
Protocol: ASIC1a expressing HEK293 cells are grown in culture medium (DMEM with 10% FBS), in polystyrene culture flasks ([…]) at 37° C. in a humidified atmosphere of 5% CO2. Confluency of cells should be 80-90% on day of plating. Cells are rinsed with 10 ml of PBS and re-suspended by addition of culture medium and trituration with a 25 ml pipette.
The cells are seeded at a density of approximately 1×10^6 cells/ml (100 μl/well) in black-walled, clear bottom, 96-well plates pre-treated with 10 mg/l poly-D-lysin (75 μl/well for ≧30 min). Plated cells were allowed to proliferate for 24 h before loading with dye.
Fluo-4/AM (1 mg, Molecular Probes) is dissolved in 912 μl DMSO. The Fluo-4/AM stock solution (1 mM) is diluted with culture medium to a final concentration of 2 μM (loading solution).
The culture medium is aspirated from the wells, and 50 μl of the Fluo-4/AM loading solution is added to each well. The cells are incubated at 37° C. for 30 min.
After the loading period, the loading solution is aspirated and the cells are washed twice with 100 μl modified Assay Buffer (145 mM NaCl, 5 mM KCl, 5 mM CaCl2, 1 mM MgCl2, 10 mM HEPES, pH 7.4) to remove extracellular dye. Following the second wash, 100 μl modified Assay Buffer is added to each well and the fluorescence is measured in FLIPR™ or FlexStation™ (Molecular Devices, USA), or any other suitable equipment known to the skilled in the art.
Temperature: Room temperature (20-22° C.)
First addition: 50 μl test solution at a rate of 30 μl/sec and a starting height of […]
Second addition: 50 μl MES solution (20 mM, 5 mM final concentration) at a rate of 35 μl/sec and a starting height of 150 μl.
Reading intervals: pre-incubation—10 sec×7 and 3 sec×3 antagonist phase—3 sec×17 and 10 sec×12
Addition plates (compound test plate and MES plate) are placed on the right and left positions in the FLIPR tray, respectively. Cell plates are placed in the middle position and the ASIC1a program is effectuated. FLIPR will then take the appropriate measurements in accordance with the interval settings above. Fluorescence obtained after stimulation is corrected for the mean basal fluorescence (in modified Assay Buffer).
The MES-induced peak calcium response, in the presence of test substance, is expressed relatively to the MES response alone. Test substances that block the MES-induced calcium response are re-tested in triplicates. Confirmed hits are picked for further characterization by performing full dose-response curves to determine potency of each hit compound as represented by the IC50 values (i.e., the concentration of the test substance which inhibits 50% of the MES-induced calcium response).
It is noted that the compounds below are not radiolabelled.

[2] = Plasma composition analysis, parent compound and metabolites by MS; assay type: in vivo; conditions: rat plasma; for Plasma Component: P-OH: Compound G: detected but not confirmed (footnote a)
Protocol: Rats receive compounds (5 mg/kg) dissolved in HPβCD 15%, dextrose 2.5%, pH 5 by intravenous (i.v). route or (25-30 mg/kg) dissolved in HPβCD 15%, dextrose 2.5%, […] (s.c.) route or (50-150 mg/kg) dissolved in HPβCD 15%, dextrose 2.5%, pH 5 by oral (p.o.) route. After the treatment, approximately 100 μl of blood sample is collected and the accurate bleeding time is recorded for each sample. Each blood sample is collected into Microvette blood collection tube containing anticoagulant lithium heparin. Following collection, the samples are centrifuged at […] for 15 minutes (to avoid haemolysis) and the plasma obtained from each is recovered and stored frozen (at −80° C.) pending analysis. Frozen samples are shipped on dry ice to quantify drug concentration within plasma after extraction procedure as previously described in Example 13.

[3] = system: CFA-induced change in weight bearing in Sprague-Dawley rats; assay: CFA model of chronic inflammatory pain, hindpaw weight bearing; assay type: in vivo, rat; conditions: 24 h after CFA; 60 min after drug; Compound A 5, 10, 20 mg/kg i.p.; Compound H 10, 30, 60 mg/kg; morphine 3, 6, 10 mg/kg; n=7-8
Protocol: Rats (body weight 260-300 g) were given a s.c. injection of CFA (50% in saline, 100 μl, Sigma) into the plantar surface of the hindpaw under brief halothane anaesthesia. After 24 h, they were then tested for hindpaw weight bearing responses, as assessed using an Incapacitance Tester (Linton Instrumentation, UK), (Zhu et al., 2005). The instrument incorporates a dual channel scale that separately measures the weight of the animal distributed to each hindpaw. While normal rats distribute their body weight equally between the two hindpaws (50-50), the discrepancy of weight distribution between an injured and non-injured paw is a natural reflection of the discomfort level in the injured paw (nocifensive behavior). The rats were placed in the plastic chamber designed so that each hindpaw rested on a separate transducer pad. […] For each rat, three readings from each paw were taken and then averaged. Side-to-side weight bearing difference was calculated as the average of the absolute value of the difference between two hindpaws from three trials (right paw reading-left paw reading).
Hindpaw weight bearing responses were measured in male Sprague-Dawley rats for 2-3 days prior to being given a hindpaw injection of CFA. Twenty-four hours later baseline responses were measured and rats were then administered Compound A (5, 10 and 20 mg/kg, i.p.), Compound H (10, 30 and 60 mg/kg) and morphine (3, 6 and 10 mg/kg). Weight bearing responses were then measured at 30, 60 and 120 min after drug or vehicle injection (data shown at 60 min.). […] All groups n=7-8.

ASIC1a [4] = molecular target: T1, ASIC1a; assay: Whole cell patch clamp in heterologous expression system (CHO cells); assay type: cell-based; set-up: expressed in transfected cells; host or cells: CHO cells
Protocol: Another example of an in vitro assessment method consists of using mammalian heterologous expression systems, which are known to the skilled in the art, and include a variety of mammalian cell lines such as COS, HEK, e.g., HEK293 and/or CHO, cells. Cell lines are transfected with gated ion channel(s) and used to perform electrophysiology as follows:
All experiments are performed at room temperature (20-25° C.) in voltage clamp using conventional whole cell patch clamp methods (Neher, E., et al. (1978) Pfluegers Arch 375:219-228).
The amplifier used is the EPC-9 (HEKA-electronics, Lambrect, Germany) run by a Macintosh G3 computer via an ITC-16 interface. Experimental conditions are set with the Pulse-software accompanying the amplifier. Data is low pass filtered and sampled directly to hard-disk at a rate of 3 times the cut-off frequency.
Pipettes are pulled from borosilicate glass using a horizontal electrode puller (Zeitz-lnstrumente, Augsburg, Germany). The pipette resistances are 2-3 MOhms in the salt solutions used in these experiments. The pipette electrode is a chloridized silver wire, and the reference is a silver chloride pellet electrode (In Vivo Metric, Healdsburg, USA) fixed to the experimental chamber. The electrodes are zeroed with the open pipette in the bath just prior to sealing.
Coverslips with the cells are transferred to a 15 μl experimental chamber mounted on the stage of an inverted microscope (IMT-2, Olympus) supplied with Nomarski optics. Cells are continuously superfused with extracellular saline at a rate of 2.5 ml/min. After giga-seal formation, the whole cell configuration is attained by suction. The cells are held at a holding voltage of −60 mV and at the start of each experiment the current is continuously measured for 45 s to ensure a stable baseline. […] Current amplitudes are measured at the peak of the responses, and effect of the compounds is calculated as the amplitude at compound equilibrium divided by the amplitude of the current evoked by the pulse just before the compound was included. […]

[5] = IV 5 mg/kg (table of Compounds G and J)
[6] = PO 50 mg/kg (table of Compounds G and J)

Row | SMILES | IC50 (ASIC1a [1]) [nM] | Plasma Component: N-desEt ([2]; IV 5 mg/kg) | Plasma Component: O-desMe [2, 5] | Plasma Component: P-OH ([2]; IV 5 mg/kg) | Plasma Component: N-desEt ([2]; PO 50 mg/kg) | Plasma Component: O-desMe [2, 6] | Plasma Component: P-OH ([2]; PO 50 mg/kg) | also measured
1 | COc1ccc(F)cc1-c1cc2c(c3c1CCN(C)C3)NC(=O)/C2=N/O [Compound A (minor Z isomer isolated), 5-(5-fluoro-2-methoxyphenyl)-6,7,8,9-tetrahydro-3-(hydroxyimino)-8-methyl-1H-pyrrolo[3,2-h]isoquinoline-2(3H)-one] | 1000 | – | – | – | – | – | – | –
2 | CN1CCc2c(-c3cc(F)ccc3O)cc3c(c2C1)NC(=O)C3=NO [Compound L, 5-(5-Fluoro-2-hydroxyphenyl)-3-(hydroxyimino)-8-methyl-6,7,8,9-tetrahydro-1H-pyrrolo[3,2-h]isoquinolin-2(3H)-one] | 800 | – | – | – | – | – | – | –
3 | CCN1CCc2c(-c3cc(Cl)ccc3OC)cc3c(c2C1)NC(=O)/C3=N/O [Compound G, 5-(5-chloro-2-methoxyphenyl)-6,7,8,9-tetrahydro-3-(hydroxyimino)-8-ethyl-1H-pyrrolo[3,2-h]isoquinoline-2(3H)-one] | 300 | Small | Small | Small ^a | Small | Small | Small ^a | –
4 | CN1CC[C@]23c4c5ccc(O)c4O[C@H]2[C@@H](O)C=C[C@H]3[C@H]1C5 [morphine, reference compound] | – | – | – | – | – | – | – | CFA-induced change in weight bearing compared with vehicle [3]: marked dose-dependent attenuation
5 | CCN1CCc2c(-c3ccccc3OC)cc3c(c2C1)NC(=O)/C3=N/O [Compound J, 5-(2-methoxy-phenyl)-6,7,8,9-tetrahydro-3-(hydroxyimino)-8-ethyl-1H-pyrrolo[3,2-h]isoquinoline-2(3H)-one] | 700 | Small | Small | Small | Small | Small | Small | –
6 | N=C(N)NC(=O)c1nc(Cl)c(N)nc1N [amiloride, reference compound] | – | – | – | – | – | – | – | human ASIC1a pH-evoked response (ASIC1a [4]): reduce the human ASIC1a pH-evoked response in CHO cells in a dose-dependent manner
